Test results reported in ChEMBL document CHEMBL1134443, “Sorbitol dehydrogenase inhibitors (SDIs): a new potent, enantiomeric SDI, 4-[2-1R-hydroxy-ethyl)-pyrimidin-4-yl]piperazine-1-sulfonic acid dimethylamide” (J Med Chem, 2001).

Columns and labels:
Rattus norvegicus = experiment: In vivo inhibition of diabetic rat sciatic nerve fructose accumulation; type: functional
Sorbitol dehydrogenase = target: T1, Sorbitol dehydrogenase (Homo sapiens, UniProt Q00796); experiment: In vitro inhibitory activity against human SDH
T1 sequence (Q00796 whole entry): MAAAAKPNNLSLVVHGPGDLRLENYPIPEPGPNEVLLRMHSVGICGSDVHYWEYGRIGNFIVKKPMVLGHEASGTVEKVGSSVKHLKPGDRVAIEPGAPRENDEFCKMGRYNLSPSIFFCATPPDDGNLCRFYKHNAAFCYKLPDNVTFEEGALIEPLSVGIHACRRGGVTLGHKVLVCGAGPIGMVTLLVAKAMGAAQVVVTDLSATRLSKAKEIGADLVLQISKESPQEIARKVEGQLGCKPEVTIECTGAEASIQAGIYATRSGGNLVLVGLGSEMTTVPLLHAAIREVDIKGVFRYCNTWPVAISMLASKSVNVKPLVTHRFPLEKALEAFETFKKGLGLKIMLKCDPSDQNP

Row | IC50 (Sorbitol dehydrogenase) [nM] | SMILES | ED50 (Rattus norvegicus) [mg/kg]
1 | 486 | CO[C@@H](C)c1nccc(N2CCN(S(=O)(=O)N(C)C)CC2)n1 | 9
2 | 27 | C[C@@H](O)c1nccc(N2CCN(S(=O)(=O)N(C)C)CC2)n1 | 1.6
3 | 246 | CN(C)S(=O)(=O)N1CCN(c2ccnc(CO)n2)CC1 | 14.1
4 | 173 | CC(O)c1nccc(N2CCN(S(=O)(=O)N(C)C)CC2)n1 (stereo not drawn) | 2.4
